The term IC50 denotes the concentration that inhibits the measured activity by half.

The target of one experiment is PDE4. Nature of the experiment: PDE assay, PDE4 enzyme solution from dog lung. The class given is biochemical, mixed-breed dog. Conditions: substrate about 4.8 nM [3H]-cAMP and 1 μM cAMP. As to the method:
These fractions were collected and glycerol was added thereto to become 50%, and the mixture was stored at −20° C.

Another experiment concerns the target T1, PDE7 (PDE7A) (Homo sapiens, UniProt Q13946).
T1 construct: His tag (hexahistidine, pcDNA4/HisMax) (N); made in house
The experiment can be described thus: PDE assay, recombinant human PDE7A. The following applies: substrate about 4.8 nM [3H]-cAMP and 0.1 μM cAMP. In kind it is biochemical. The source says:
Based on the information of cDNA sequence of human PDE7A (Genbank/EMBL Accession No. NM002603), a cDNA encoding human PDE7A was cloned by PCR method, according to a method described in Sasaki et al. (Sasaki et al., Biochem. Biophys. Res. Commun., vol. 271, pp. 575-583, 2000). Further, based on the information of cDNA sequence of human PDE8A (Genbank/EMBL Accession No. AF388183), a cDNA encoding human PDE8A was cloned by PCR method, according to a method described in Gamanuma et al. (Gamanuma et al., Cell Signal, 2003, vol. 15, pp. 565-574). Further, a cDNA encoding human PDE11A was obtained, according to a method reported in Yuasa et al. (Yuasa et al., J. Biol. Chem., vol. 275, pp. 31469-31479, 2000). Using these cDNAs, recombinant proteins of human PDE7A, human PDE8A, and human PDE11A were prepared as follows.
DNA fragments comprising a cDNA encoding human PDE7A, human PDE8A or human PDE11A were linked to pcDNA4/HisMax (available from Invitrogen), to give a vector plasmid for expression of human proteins, with a histidine tag peptide (hexahistidine), added to the N-terminus. COS-7 cells were transfected with these vector plasmids, and the cells were cultured in Dulbecco's modified Eagle medium containing 10% bovine fetal serum for about 24 hours. […]

The target in another experiment is PDE1. The experiment can be described thus: PDE assay, PDE1 enzyme solution from rat ventricle. The class given is biochemical, SD rat. Conditions: substrate about 12 nM [3H]-cGMP and 1 μM cGMP. As to the method:
Ventricle was excised from SD rat anesthetized with sodium pentobarbital (Nihon SLC, about 300 g), and washed with 100 ml of ice-cold saline 3 times. After the tissues were cut in approximately 1 g, it was frozen by liquid nitrogen, and stored at −80° C.
To about 5 g of this tissue sample was added 16 ml of an ice-cold homogenization buffer I, and the resultant mixture was homogenized by Polytron homogenizer for 3 minutes. The homogenate was centrifuged at 8000 rpm, at 4° C. for 20 minutes, and the obtained supernatant was further centrifuged by an ultracentrifuge at 50000 rpm, at 4° C. for 60 minutes. The resultant supernatant was stored at 4° C. […]
Subsequently, the eluted fractions were used as an enzyme solution for PDE assay. […] (final concentration of 1 mM) or calcium chloride (final concentration of 2 mM) and calmodulin (40 unit s/ml), and cGMP-hydrolyzing activity was measured.
For these PDE1 containing fractions, cGMP hydrolyzing activities were analyzed in the presence of E4021 (100 nM), PDE5 specific inhibitor, it was shown that the cGMP-hydrolyzing activities in these fractions were not inhibited by E4021. […]
Further, in the presence or absence of unlabeled cGMP, cAMP-PDE activities were measured for each of the fractions. […]
Still further, in the presence of rolipram (10 μm), the PDE4 specific inhibitor, cAMP hydrolyzing activities were measured for each of the fractions. […]

T1 sequence (Q13946 1-456 isoform Q13946-2): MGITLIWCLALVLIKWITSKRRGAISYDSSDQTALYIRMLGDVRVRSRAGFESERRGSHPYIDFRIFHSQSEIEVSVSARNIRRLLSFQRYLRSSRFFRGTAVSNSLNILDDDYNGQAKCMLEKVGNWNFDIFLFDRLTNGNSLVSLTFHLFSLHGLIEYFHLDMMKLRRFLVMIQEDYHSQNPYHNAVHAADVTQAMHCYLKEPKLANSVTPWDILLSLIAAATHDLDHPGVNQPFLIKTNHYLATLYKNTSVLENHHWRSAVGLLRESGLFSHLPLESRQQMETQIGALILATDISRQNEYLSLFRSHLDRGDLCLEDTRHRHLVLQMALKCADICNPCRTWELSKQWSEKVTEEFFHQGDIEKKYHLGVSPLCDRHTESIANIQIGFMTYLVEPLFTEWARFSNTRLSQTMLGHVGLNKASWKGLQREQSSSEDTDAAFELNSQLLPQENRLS

As for `COc1ccc(-c2cc(N3CCCC3)nc(/C=C/c3nc(-n4ccnc4)c4ccccc4n3)n2)cc1OC` [Compound A, 2-{(E)-2-[4-(1-imidazolyl)-quinazolin-2-yl]}ethenyl-4-(3,4-dimethoxy)phenyl-6-(pyrrolidin-1-yl)pyrimidine], the results for the IC50 against PDE4, on PDE7 (PDE7A) and against PDE1 were 160 nM, > 1000 nM and > 1000 nM, respectively.

Values taken from patent publication US8338420B1, “Treatment of Parkinson's disease and enhancement of dopamine signal using PDE 10 inhibitor” (Mitsubishi Tanabe Pharma Corporation, priority 2002, dated 2012).
